In patent US9642861B2, “Methods of treating oral mucositis” (priority 2006, dated 2017):
“And” between values parts separate entries of the source, which are not always exact repeats. Equal values may be shown once.

Tested on: oral mucositis induced in hamsters by acute radiation (40 Gy to left buccal cheek pouch)
Assay: ACT-03 (Example 2): acute radiation model of oral mucositis in hamsters, mucositis scoring
Assay type: in vivo, Syrian Golden Hamsters
Parameters: key to Mucositis score / Mucositis Scores: 0: Pouch completely healthy. No erythema or vasodilation.; 1: Light to severe erythema and vasodilation. No erosion of mucosa.; 2: Severe erythema and vasodilation. Erosion of superficial aspects of mucosa leaving denuded areas. Decreased stippling of mucosa.; 3: Formation of off-white ulcers in one or more places. Ulcers may have a yellow/gray due to pseudomembrane. Cumulative size of ulcers should equal about ¼ of the pouch. Severe erythema and vasodilation.; 4: Cumulative seize of ulcers should equal about ½ of the pouch. Loss of pliability. Severe erythema and vasodilation.; 5: Virtually all of pouch is ulcerated. Loss of pliability (pouch can only partially be extracted from mouth); peak mean mucositis score: scale not given here
Conditions: for Mucositis Scores: first study, single animal, blinded scorer; for Mucositis score: individual animal, 2 blinded scorers
Source text: The acute radiation model in hamsters, developed by the Principal Investigator, has proven to be an accurate, efficient and cost-effective technique to provide a preliminary evaluation of anti-mucositis compounds (9). The course of mucositis in this model is well defined and results in peak scores approximately 14-16 Days following radiation. The acute model has little systemic toxicity, resulting in few hamster deaths, thus permitting the use of smaller groups (N=7-8) for initial efficacy studies. It has also been used to study specific mechanistic elements in the pathogenesis of mucositis. Molecules that show efficacy in the acute radiation model may be further evaluated in the more complex models of fractionated radiation, chemotherapy, or concomitant therapy.
In this study, an acute radiation dose of 40 Gy on day 0 was administered locally to the cheek pouch. Clinically significant mucositis was observed on days 12 through 28.
Seventy-two male Syrian Golden Hamsters were divided randomly into 9 groups of 8 animals and given an acute radiation dose of 40 Gy directed to their left buccal cheek pouch. This was accomplished by anesthetizing the animals and everting the left buccal pouch, while protecting the rest of the animal with a lead shield. […] Mucositis was evaluated clinically starting on Day 6, and continued on alternate days until day 28.
The grade of mucositis was scored, beginning on day 6, and for every second day thereafter, through and including day 28 (for scoring scheme, see Table 6 and FIG. 8). The effect on mucositis of each drug treatment compared to ip vehicle-treated controls was assessed according to the following parameters:
The difference in the number of days hamsters in each group have ulcerative (score≧3) mucositis.
On each evaluation day, the number of animals with a blinded mucositis score of ≧3 in each drug treatment group was compared to the vehicle-treated control group. Differences were compared on a cumulative basis and statistical significance was determined by chi-square analysis. Efficacy, in this analysis, is defined as a significant reduction in the number of days that a group of animals had ulcerations (scores≧3) when compared to the control group.
For each evaluation day the scores of the control group were compared to those of the treated groups using non-parametric rank sum analysis. Treatment success was considered as a statistically significant lowering of scores in the treated group on 2 or more days from day 6 to day 28.
All seventy-two (72) male Syrian Golden Hamsters were given an acute radiation dose of 40 Gy directed to their left buccal cheek pouch. This was accomplished by anesthetizing the animals and everting the left buccal pouch, while protecting the rest of the animal with a lead shield. […] Mucositis was evaluated clinically starting on day 6, and continuing on alternate days until day 28. The study timeline is depicted in FIG. 7. Dose levels were determined based on the results of a previous acute toxicity study (data not published), and in the prior mucositis study of Example 1, shown in Table 5.
Mucositis was induced using a standardized acute radiation protocol. A single dose of radiation (40 Gy/dose) was administered to all animals on day 0. Radiation was generated with a 250 kilovolt potential (15-ma) source at a focal distance of 50 cm, hardened with a 0.35 mm Cu filtration system. Irradiation targeted the left buccal pouch mucosa at a rate of 3.2 Gy/minute. Prior to irradiation, animals were anesthetized with an intra-peritoneal injection of Ketamine (160 mg/kg) and Xylazine (8 mg/kg). The left buccal pouch was everted, fixed and isolated using a lead shield.
The mucositis score, weight change and survival were measured throughout the study as described above. For the evaluation of mucositis, the animals were anesthetized with isoflurane and the left pouch everted. […]

[1] = group 2: ip 30 mg/kg once daily day −1 to 3
[2] = group 2: ip 30 mg/kg qd day −1 to 3
[3] = group 3: ip 3 mg/kg bid day −1 to 3
[4] = group 4: ip 10 mg/kg bid day −1 to 3
[5] = group 4: ip 10 mg/kg twice daily day −1 to 3
[6] = group 5: ip 30 mg/kg bid day −1 to 3
[7] = group 5: ip 30 mg/kg twice daily day −1 to 3
[8] = group 6: ip 30 mg/kg once daily day 0 to 3
[9] = group 6: ip 30 mg/kg qd day 0 to 3
[10] = group 7: ip 30 mg/kg bid day 0 to 3
[11] = group 7: ip 30 mg/kg twice daily day 0 to 3
[12] = group 8: ip 30 mg/kg twice daily on day 0
[13] = group 9: ip 30 mg/kg bid day 0 & 7

[Cl-].[Cl-].[Mn+2].c1cc2nc(c1)CN[C@@H]1CCCC[C@H]1NCCN[C@@H]1CCCC[C@H]1NC2 [M40403]
Mucositis Scores (Group 8: 30 mg/kg/dose twice daily on day 0, day 6, 30 mg/kg): 0 (4×) and 1 (2×)
Mucositis Scores (Group 8: 30 mg/kg/dose twice daily on day 0, day 8): 0
Mucositis Scores (Group 8: 30 mg/kg/dose twice daily on day 0, day 10, 30 mg/kg): 0 (3×) and 1 (3×)
Mucositis Scores (Group 8: 30 mg/kg/dose twice daily on day 0, day 12, 30 mg/kg): 2 (5×) and 1
Mucositis Scores (Group 8: 30 mg/kg/dose twice daily on day 0, day 14, 30 mg/kg): 3 (4×) and 2 (2×)
Mucositis Scores (Group 8: 30 mg/kg/dose twice daily on day 0, day 16, 30 mg/kg): 2 (4×) and 3 (2×)
Mucositis Scores (Group 8: 30 mg/kg/dose twice daily on day 0, day 18, 30 mg/kg): 1 (3×) and 2 and 3 (2×)
Mucositis Scores (Group 8: 30 mg/kg/dose twice daily on day 0, day 20, 30 mg/kg): 2 (2×) and 1 (2×) and 3 (2×)
Mucositis Scores (Group 8: 30 mg/kg/dose twice daily on day 0, day 22): 2
Mucositis Scores (Group 8: 30 mg/kg/dose twice daily on day 0, day 24, 30 mg/kg): 0 (3×) and 2 (2×) and 1
Mucositis Scores (Group 8: 30 mg/kg/dose twice daily on day 0, day 26, 30 mg/kg): 1 (2×) and 0 (3×) and 2
Mucositis Scores (Group 8: 30 mg/kg/dose twice daily on day 0, day 28, 30 mg/kg): 0 (3×) and 1 (3×)
Mucositis Scores (Group 9: 30 mg/kg/dose twice daily on day 0 and on day 7, day 6, 30 mg/kg): 0 and 1
Mucositis Scores (Group 9: 30 mg/kg/dose twice daily on day 0 and on day 7, day 8, 30 mg/kg): 0
Mucositis Scores (Group 9: 30 mg/kg/dose twice daily on day 0 and on day 7, day 10, 30 mg/kg): 1 and 0
Mucositis Scores (Group 9: 30 mg/kg/dose twice daily on day 0 and on day 7, day 12, 30 mg/kg): 2
Mucositis Scores (Group 9: 30 mg/kg/dose twice daily on day 0 and on day 7, day 14, 30 mg/kg): 2
Mucositis Scores (Group 9: 30 mg/kg/dose twice daily on day 0 and on day 7, day 16, 30 mg/kg): 3
Mucositis Scores (Group 9: 30 mg/kg/dose twice daily on day 0 and on day 7, day 18, 30 mg/kg): 3
Mucositis Scores (Group 9: 30 mg/kg/dose twice daily on day 0 and on day 7, day 20, 30 mg/kg): 2
Mucositis Scores (Group 9: 30 mg/kg/dose twice daily on day 0 and on day 7, day 22, 30 mg/kg): 2 (2×) and 0
Mucositis Scores (Group 9: 30 mg/kg/dose twice daily on day 0 and on day 7, day 24, 30 mg/kg): 0 and 1 (2×)
Mucositis Scores (Group 9: 30 mg/kg/dose twice daily on day 0 and on day 7, day 26, 30 mg/kg): 2 and 1 (2×)
Mucositis Scores (Group 9: 30 mg/kg/dose twice daily on day 0 and on day 7, day 28, 30 mg/kg): 1 and 2 and 0
day of peak mean mucositis score [1]: 16 days
peak mean mucositis score [1]: 2.8
Chi Sq v control, days with mucositis score >=3 [2]: 4.4860
Days <3 (animal days with a mucositis score below 3) [2]: 108
Days >=3 (animal days with a mucositis score of three or more) [2]: 36
% Days >=3 (percentage of animal days with a mucositis score of 3 or higher) (group 2: ip 30 mg/kg qd day −1 to 3, 30 mg/kg): 25%
Chi Sq v control, days with mucositis score >=3 [3]: 5.3950
Days <3 (animal days with a mucositis score below 3) [3]: 144
Days >=3 (animal days with a mucositis score of three or more) [3]: 48
% Days >=3 (percentage of animal days with a mucositis score of 3 or higher) (group 3: ip 3 mg/kg bid day −1 to 3, 3 mg/kg): 25%
peak mean mucositis score (group 3: ip 3 mg/kg twice daily day −1 to 3): 2.9
Chi Sq v control, days with mucositis score >=3 [4]: 1.1996
Days <3 (animal days with a mucositis score below 3) [4]: 136
Days >=3 (animal days with a mucositis score of three or more) [4]: 56
% Days >=3 (percentage of animal days with a mucositis score of 3 or higher) (group 4: ip 10 mg/kg bid day −1 to 3, 10 mg/kg): 29.2% and 29.17%
day of peak mean mucositis score [5]: 16 days
peak mean mucositis score [5]: 3.0
Chi Sq v control, days with mucositis score >=3 [6]: 7.229
Days <3 (animal days with a mucositis score below 3) [6]: 112
Days >=3 (animal days with a mucositis score of three or more) [6]: 32
% Days >=3 (percentage of animal days with a mucositis score of 3 or higher) (group 5: ip 30 mg/kg bid day −1 to 3, 30 mg/kg): 22.2% and 22.22%
day of peak mean mucositis score [7]: 16 days
peak mean mucositis score [7]: 2.8
Mucositis score (group 6, day 6): 1 and 0 (4×)
Mucositis score (group 6, day 8): 0 (4×) and 1
Mucositis score (group 6, day 10): 0 (4×) and 1
Mucositis score (group 6, day 12): 2 (4×) and 0
Mucositis score (group 6, day 14): 2 (3×) and 3 (2×)
Mucositis score (group 6, day 16): 4 and 3 (4×)
Mucositis score (group 6, day 18): 4 and 3 (2×) and 2 (2×)
Mucositis score (group 6, day 20): 4 and 3 (2×) and 2 (2×)
Mucositis score (group 6, day 22): 4 and 2 (2×) and 0 and 1
Mucositis score (group 6, day 24): 4 and 2 (4×)
Mucositis score (group 6, day 26): 3 and 2 (3×) and 1
Mucositis score (group 6, day 28): 2 (2×) and 0 and 1 (2×)
day of peak mean mucositis score [8]: 16 days
peak mean mucositis score [8]: 3.2
Chi Sq v control, days with mucositis score >=3 [9]: 1.029
Days <3 (animal days with a mucositis score below 3) [9]: 100
Days >=3 (animal days with a mucositis score of three or more) [9]: 44
% Days >=3 (percentage of animal days with a mucositis score of 3 or higher) (group 6: ip 30 mg/kg qd day 0 to 3, 30 mg/kg): 30.6% and 30.56%
Mucositis score (group 7, day 6): 0
Mucositis score (group 7, day 8): 0 (2×) and 1
Mucositis score (group 7, day 10): 1 and 0 (2×)
Mucositis score (group 7, day 12): 2
Mucositis score (group 7, day 14): 2
Mucositis score (group 7, day 16): 1 (2×) and 2
Mucositis score (group 7, day 18): 1 and 0 and 3
Mucositis score (group 7, day 20): 1 (2×) and 0
Mucositis score (group 7, day 22): 0 and 1 (2×) and 2
Mucositis score (group 7, day 24): 1 (2×) and 0 (2×)
Mucositis score (group 7, day 26): 1 (3×) and 0
Mucositis score (group 7, day 28): 1 (3×) and 0
Chi Sq v control, days with mucositis score >=3 [10]: 38.3440
Days <3 (animal days with a mucositis score below 3) [10]: 174
Days >=3 (animal days with a mucositis score of three or more) [10]: 18
% Days >=3 (percentage of animal days with a mucositis score of 3 or higher) (group 7: ip 30 mg/kg bid day 0 to 3, 30 mg/kg): 9.4% and 9.38%
day of peak mean mucositis score [11]: 16 days
peak mean mucositis score [11]: 2.2
Chi Sq v control, days with mucositis score >=3 (group 8: ip 30 mg/kg bid day 0): 25.681
Days <3 (animal days with a mucositis score below 3) (group 8: ip 30 mg/kg bid day 0): 166
Days >=3 (animal days with a mucositis score of three or more) (group 8: ip 30 mg/kg bid day 0): 26
% Days >=3 (percentage of animal days with a mucositis score of 3 or higher) (group 8: ip 30 mg/kg bid day 0, 30 mg/kg): 13.5% and 13.54%
day of peak mean mucositis score [12]: 14 days
peak mean mucositis score [12]: 2.4
Chi Sq v control, days with mucositis score >=3 [13]: 19.113
Days <3 (animal days with a mucositis score below 3) [13]: 142
Days >=3 (animal days with a mucositis score of three or more) [13]: 26
% Days >=3 (percentage of animal days with a mucositis score of 3 or higher) (group 9: ip 30 mg/kg bid day 0 & 7, 30 mg/kg): 15.5% and 15.48%
peak mean mucositis score (group 9: ip 30 mg/kg twice daily on day 0 and day 7): 2.4
